These results are taken from the Bradley open melting point set (2014).

Where “and” joins values, the source holds several entries; their conditions need not be identical. Equal values may be shown once.

With `Cc1ccc(N)cc1Br` [3-bromo-4-methylaniline], the melting point was found to be 27 °C. As for `CC(=O)OCCC(C)C` [isopentyl acetate], the figure is -78 °C. The figure for `Nc1ccc(C(=O)O)cc1` [p-aminobenzoic_acid] is 189 °C; for `CC(C)CC(=O)O` [isovaleric acid] it is -29.3 °C; for `Clc1ccc(C(Cn2ccnc2)OCc2csc3c(Cl)cccc23)c(Cl)c1` (stereo unspecified) [sertaconazole] it is 146 °C. The figure for `Cc1c[nH]c(=O)[nH]c1=O` [thymine] is 316 °C; for `C=Cc1ccccc1` [styrene] it is -31 °C; for `CCC(=O)c1ccc(OCc2ccccc2)cc1` [4'-benzyloxypropiophenone] it is 100 °C.

On to `c1ccc2scnc2c1` [benzothiazole], for which the melting point was found to be 2 °C.

For the compound `O=C(O)c1ccccc1` [benzoic_acid], the melting point is 123 °C. The figure for `[2H]c1c([2H])c([2H])c2c(c1[2H])c([2H])c([2H])c1c3c([2H])c([2H])c([2H])c([2H])c3c([2H])c([2H])c21` [(~2~H_12_)Chrysene] is 255 °C; for `CCCCCCc1ccc(O)cc1O` [4-n-hexylresorcinol] it is 66 °C. `CCCCC(CC)CN` (stereo unspecified) [2-ethylhexylamine] yielded a melting point of -76 °C.

Compound `CC(O)CC(=O)O` (stereo unspecified) [3-hydroxybutyric acid] displayed a melting point of 38 °C. As for `NNC(=O)c1ccc(C(F)(F)F)cc1` [4-(trifluoromethyl)benzhydrazide], the figure is 119 °C; as for `c1csc(C2CNCCN2)c1` (stereo unspecified) [2-(2-thienyl)piperazine], 83 °C.

Consider `CCCCCCCCCCCCCCCCCCCCCCCCCCCCCCCCC` [Tritriacontane], for which the melting point came out at 72 °C.

`CC1(c2ccccc2)C(=O)NC(=O)NC1=O` [heptobarbital] had a melting point of 228 °C.

`Nc1cc2ccccc2oc1=O` [3-aminocoumarin] came in with a melting point of 136 °C.

For the compound `C=C[C@H]1C[N@@]2CC[C@H]1C[C@@H]2[C@@H](O)c1ccnc2ccc(OC)cc12` [quinidine], the melting point is 174 °C.

`N#Cc1coc2ccccc2c1=O` [chromone-3-carbonitrile] displayed a melting point of 175 °C. As for `C#CC(C)(C)C` [3,3-dimethyl-1-butyne], the figure is -78 °C. As for `Cc1cccc2ccccc12` [1-methylnaphthalene], the figure is -22 °C; as for `CC(O)C(C)O` (stereo unspecified) [2,3-butanediol], 25 °C; as for `O=C(c1c(F)c(F)c(F)c(F)c1F)c1c(F)c(F)c(F)c(F)c1F` [decafluorobenzophenone], 93 °C.

The compound `[O-][I+2]([O-])O` [Iodic acid] yielded a melting point of 110 °C. The figure for `CCCOc1ccc2[nH]c(NC(=O)OC)nc2c1` [oxibendazole] is 230 °C; for `C[C@]12C=CC(=O)C=C1CC[C@@H]1[C@@H]2C(=O)C[C@@]2(C)[C@H]1CC[C@]2(O)C(=O)CO` [Prednisone] it is 234 °C. As for `Cc1cc(O)ccc1O` [2-methylhydroquinone], the figure is 129 °C; as for `Cc1cc(C)nc(NS(=O)(=O)c2ccc(N)cc2)n1` [sulfamethazine], 176 °C. The figure for `Nc1cccc(Cc2cccc(N)c2)c1` [3,3'-diaminodiphenylmethane] is 82 °C; for `CCCCCCCCOc1ccc(NC(=O)c2ccc(C)cc2)cc1` [4-methyl-N-[4-(octyloxy)phenyl]benzamide] it is 141 °C. The compound `CCCCc1ccc(/N=N/c2ccc(OC(=O)CC)cc2)cc1` [4-[(E)-(4-butylphenyl)diazenyl]phenyl propanoate] returned a melting point of 86 °C. As for `O=C(O)c1cccc(Cl)c1[N+](=O)[O-]` [3-chloro-2-nitrobenzoic acid], the figure is 237 °C.

Take `COc1ccc(C(=O)O)cc1OC` [3,4-dimethoxybenzoic acid]: the melting point was 181 °C. The figure for `Nc1ccc(C(=O)O)cc1` [4-Aminobenzoic acid] is 188 °C. For `c1ccc(Cc2ccccc2)cc1` [diphenylmethane], the melting point worked out at 25 °C. The figure for `COc1cc[n+]([O-])cc1` [4-methoxypyridine n-oxide] is 102 °C; for `Cc1cc[n+]([O-])cc1C#N` [4-methylpyridine-3-carbonitrile 1-oxide] it is 185 °C; for `Brc1cccc(I)c1` [1-bromo-3-iodobenzene] it is -9 °C. As for `CCOC(N)=O` [ethyl carbamate], the figure is 49 °C.

In turn, `O=C(c1ccccc1)N(O)c1ccccc1` [N-Hydroxy-N-phenylbenzamide] had a melting point of 119 °C. As for `O=[N+]([O-])c1cccc(CCl)c1` [3-nitrobenzyl_chloride], the figure is 47 °C; as for `Cc1ccc[nH]c1=O` [3-methyl-2-pyridone], 140 °C. The figure for `OB(O)c1ccc2[nH]ccc2c1` [indole-5-boronic acid] is 173 °C; for `N#Cc1c(N)sc2c1CCCC2` [2-Amino-4,5,6,7-tetrahydrobenzo(b)thiophene-3-carbonitrile] it is 143 °C; for `ClC(Cl)(Cl)c1ccccc1` [benzotrichloride] it is -4 °C. For `c1ccc2ccccc2c1` [naphthalene], the melting point is 83 °C and 80.2 °C. As for `N#Cc1ccc(Oc2ccccc2)cc1` [4-phenoxybenzonitrile], the melting point is 44 °C. The figure for `CC(C)=C/C(C)(C)C` [2,4,4-trimethyl-2-pentene] is -106 °C. The figure for `Clc1ccc(-c2ccc(Cl)cc2)cc1` [PCB-15] is 149 °C. As for `S=C=S` [carbon disulfide], the figure is -112 °C; as for `O=S(=O)(c1ccc(Cl)cc1)c1ccc(Cl)cc1` [bis(4-chlorophenyl) sulfone], 149 °C; as for `CC1=CC(=O)CC1` [3-methyl-2-cyclopenten-1-one], 2 °C. Turning to `CCCCNc1cc(C(=O)O)cc(S(N)(=O)=O)c1Oc1ccccc1` [Bumetanide], the melting point came out at 230 °C.

Compound `Cc1ncc([N+](=O)[O-])n1CCO` [metronidazole] came in with a melting point of 160 °C. Turning to `O=C(O)CC[N+](=O)[O-]` [3-Nitropropanoic acid], the melting point is 64 °C. The figure for `CCC(=O)c1ccc(Cl)cc1` [1-(4-Chlorophenyl)propan-1-one] is 35.5 °C. As for `N#CCc1ccc(CC#N)cc1` [1,4-phenylenediacetonitrile], the figure is 96 °C; as for `OC/C(Br)=C(\Br)CO` [(2E)-2,3-Dibromobut-2-ene-1,4-diol], 113 °C; as for `O=C(O)c1cccc2ccccc12` [1-Naphthoic acid], 162 °C.

For the compound `NC(=O)c1ccccc1O` [salicylamide], the melting point worked out at 140 °C. As to `O=[N+]([O-])c1ccccc1O` [2-Nitrophenol], the melting point is 44 °C.

`O=C(/N=N/C(=O)OCc1ccccc1)OCc1ccccc1` [dibenzyl azodicarboxylate] gave a melting point of 45 °C. Compound `COc1ccc(C(N)=O)cc1` [4-methoxybenzamide] gave a melting point of 166 °C. The compound `NC(=O)c1ccccc1N` [o-aminobenzamide] came in with a melting point of 113 °C. Consider `CC(C(=O)O)c1ccccc1` (stereo unspecified) [2-phenylpropionic acid], for which the melting point is -5 °C. The figure for `O=C(O)c1ccccc1O` [salicylic acid] is 157 °C; for `O=C(O)c1ccccc1-c1ccccc1` [o-phenylbenzoic_acid] it is 115 °C. As for `Cc1cc(C)c(C(=O)O)c(C)c1` [2,4,6-trimethylbenzoic acid], the figure is 154 °C. As for `COC(=O)n1c(C)c(C)c2ccccc21` [methyl 2,3-dimethyl-1H-indole-1-carboxylate], the figure is 50 °C; as for `O=C1C=C(/C=C/c2ccccc2)CCC1` [3-[(E)-2-phenylethenyl]cyclohex-2-en-1-one], 66 °C. On to `CCCOC(C)=O` [N-propyl acetate], for which the melting point is -92 °C.

For `C[C@]12CC[C@H]3[C@@H](CCC4=CC(=O)CC[C@@]43C)[C@@H]1CC[C@@H]2O` [Testosterone], the melting point was 154 °C.

`Sc1ccccc1S` [1,2-benzenedithiol] registered a melting point of 23 °C. As for `O=C1NC(=O)C(c2ccccc2)(c2ccccc2)N1` [phenytoin], the figure is 296 °C and 295 °C; as for `CC(C)(CO)CO` [2,2-dimethyl-1,3-propanediol], 128 °C and 126 °C.

In turn, `CCC(CC)C(=O)O` [2-ethylbutyric acid] showed a melting point of -15 °C.

Consider `COc1cc2c(c(OC)c1OC)-c1ccc(OC)c(=O)cc1[C@@H](NC(C)=O)CC2` [colchicine], for which the melting point is 146 °C. As for `CC(C)Oc1ccc2c(=O)c(-c3ccccc3)coc2c1` [ipriflavone], the figure is 115 °C; as for `O=C(O)c1cccc(O)c1O` [2,3-dihydroxybenzoic acid], 206 °C; as for `O=[N+]([O-])c1cccc(F)c1O` [2-fluoro-6-nitrophenol], 93 °C. As for `c1ccc2c(c1)CCCC2` [1,2,3,4-tetrahydronaphthalene(tetralin)], the figure is -35 °C; as for `Clc1cc(Br)ccc1I` [4-bromo-2-chloro-1-iodobenzene], 34 °C.

Take `Nc1cc(N2CCCCC2)nc(N)[n+]1[O-]` [Minoxidil]: the melting point stood at 248 °C. The figure for `Brc1cccc(Br)c1` [1,3-dibromobenzene] is -7 °C; for `CC(=O)OCC1OC(Oc2ccc(C)cc2)C(OC(C)=O)C(OC(C)=O)C1OC(C)=O` (stereo unspecified) [4-methylphenyl 2,3,4,6-tetra-O-acetylhexopyranoside] it is 126 °C; for `C1=CC=CC=CC=C1` [Cycloocta-1,3,5,7-tetraene] it is -27 °C. The compound `Cc1ccc(N)cc1F` [3-fluoro-4-methylaniline] yielded a melting point of 33 °C.

For `CC1CCc2cc(F)cc3c(=O)c(C(=O)O)cn1c23` (stereo unspecified) [flumequine], the melting point turned out to be 253 °C. The figure for `CCOC(=O)c1ccccc1C(=O)OCC` [Diethyl phthalate] is -3 °C.
